From patent US9611267B2, “Substituted tricyclic compounds as FGFR inhibitors” (Incyte Corporation, priority 2012, dated 2017)

Columns and labels:
Format in all cases: biochemical
FGFR1 = FGFR1 (Homo sapiens (Human), UniProt P11362); experiment: FGFR enzymatic assay (FRET peptide phosphorylation), FGFR1; conditions: FGFR1 enzyme 0.02 nM, ATP 210 μM
Summary of the method: (§1)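 IC50 values were obtained from variable-slope sigmoidal dose-response fitting of a FRET read-out of peptide phosphorylation. The buffer, described for FGFR3, was 50 mM HEPES pH 7.5 with MgCl2, EGTA, Tween-20 and DTT.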

FGFR3 = FGFR3 (Homo sapiens (Human), UniProt P22607); experiment: FGFR enzymatic assay (FRET peptide phosphorylation), FGFR3; conditions: FGFR3 enzyme (Millipore), ATP 140 μM
FGFR3, sequence (P22607 23-806): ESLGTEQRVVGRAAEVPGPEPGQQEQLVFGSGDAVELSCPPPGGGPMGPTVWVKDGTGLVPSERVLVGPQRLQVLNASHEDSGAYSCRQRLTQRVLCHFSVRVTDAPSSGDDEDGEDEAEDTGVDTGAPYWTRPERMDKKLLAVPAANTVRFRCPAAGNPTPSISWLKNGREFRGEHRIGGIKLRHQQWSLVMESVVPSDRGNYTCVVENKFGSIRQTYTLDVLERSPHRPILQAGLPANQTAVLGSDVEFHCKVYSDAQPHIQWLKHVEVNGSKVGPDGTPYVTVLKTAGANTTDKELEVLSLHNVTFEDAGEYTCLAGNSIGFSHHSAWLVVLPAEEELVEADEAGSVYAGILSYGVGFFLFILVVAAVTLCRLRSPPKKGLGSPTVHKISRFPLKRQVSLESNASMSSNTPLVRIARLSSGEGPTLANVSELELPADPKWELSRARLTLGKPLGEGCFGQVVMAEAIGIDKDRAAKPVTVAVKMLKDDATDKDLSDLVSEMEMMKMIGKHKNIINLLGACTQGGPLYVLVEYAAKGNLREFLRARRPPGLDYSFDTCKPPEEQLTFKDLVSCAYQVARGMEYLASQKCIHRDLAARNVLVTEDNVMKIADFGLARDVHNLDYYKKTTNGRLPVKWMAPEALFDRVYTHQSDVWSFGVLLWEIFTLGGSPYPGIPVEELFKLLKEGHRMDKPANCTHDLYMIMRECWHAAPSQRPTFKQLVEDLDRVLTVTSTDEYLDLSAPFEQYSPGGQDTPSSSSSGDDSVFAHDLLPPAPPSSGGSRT
Summary of the method: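 After 5-10 min pre-incubation of FGFR3 with serially diluted compound in pH 7.5 HEPES/MgCl2/EGTA/DTT buffer, the reaction proceeded 1 hr at 25° C. Phosphorylated peptide was detected by FRET, and IC50 was fitted with a variable-slope sigmoid.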

FGFR2 = FGFR2 (Homo sapiens (Human), UniProt P21802); experiment: FGFR enzymatic assay (FRET peptide phosphorylation), FGFR2; conditions: FGFR2 enzyme 0.01 nM, ATP 100 μM
FGFR2, sequence (P21802 22-821): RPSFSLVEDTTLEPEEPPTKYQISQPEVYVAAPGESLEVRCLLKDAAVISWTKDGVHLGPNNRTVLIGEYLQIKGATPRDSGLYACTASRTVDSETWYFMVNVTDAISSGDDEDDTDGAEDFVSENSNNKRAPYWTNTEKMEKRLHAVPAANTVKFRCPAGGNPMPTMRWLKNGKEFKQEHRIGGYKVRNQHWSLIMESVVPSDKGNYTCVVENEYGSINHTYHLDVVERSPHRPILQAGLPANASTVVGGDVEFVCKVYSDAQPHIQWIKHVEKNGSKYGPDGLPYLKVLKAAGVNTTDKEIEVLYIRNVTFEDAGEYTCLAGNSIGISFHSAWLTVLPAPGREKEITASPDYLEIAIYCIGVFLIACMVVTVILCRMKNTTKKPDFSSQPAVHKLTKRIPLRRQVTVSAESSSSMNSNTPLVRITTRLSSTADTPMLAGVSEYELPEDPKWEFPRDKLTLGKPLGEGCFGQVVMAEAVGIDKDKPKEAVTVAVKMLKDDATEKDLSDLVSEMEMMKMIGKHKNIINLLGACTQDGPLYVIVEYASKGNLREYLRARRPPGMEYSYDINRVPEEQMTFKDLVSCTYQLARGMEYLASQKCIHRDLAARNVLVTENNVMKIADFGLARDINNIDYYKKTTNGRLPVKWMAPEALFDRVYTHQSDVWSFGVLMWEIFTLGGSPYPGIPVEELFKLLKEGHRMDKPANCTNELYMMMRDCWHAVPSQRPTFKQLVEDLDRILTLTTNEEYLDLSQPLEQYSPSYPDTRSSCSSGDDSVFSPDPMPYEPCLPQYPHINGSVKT
Summary of the method: as §1

Measured: IC50

FGFR1, sequence (P11362 22-822): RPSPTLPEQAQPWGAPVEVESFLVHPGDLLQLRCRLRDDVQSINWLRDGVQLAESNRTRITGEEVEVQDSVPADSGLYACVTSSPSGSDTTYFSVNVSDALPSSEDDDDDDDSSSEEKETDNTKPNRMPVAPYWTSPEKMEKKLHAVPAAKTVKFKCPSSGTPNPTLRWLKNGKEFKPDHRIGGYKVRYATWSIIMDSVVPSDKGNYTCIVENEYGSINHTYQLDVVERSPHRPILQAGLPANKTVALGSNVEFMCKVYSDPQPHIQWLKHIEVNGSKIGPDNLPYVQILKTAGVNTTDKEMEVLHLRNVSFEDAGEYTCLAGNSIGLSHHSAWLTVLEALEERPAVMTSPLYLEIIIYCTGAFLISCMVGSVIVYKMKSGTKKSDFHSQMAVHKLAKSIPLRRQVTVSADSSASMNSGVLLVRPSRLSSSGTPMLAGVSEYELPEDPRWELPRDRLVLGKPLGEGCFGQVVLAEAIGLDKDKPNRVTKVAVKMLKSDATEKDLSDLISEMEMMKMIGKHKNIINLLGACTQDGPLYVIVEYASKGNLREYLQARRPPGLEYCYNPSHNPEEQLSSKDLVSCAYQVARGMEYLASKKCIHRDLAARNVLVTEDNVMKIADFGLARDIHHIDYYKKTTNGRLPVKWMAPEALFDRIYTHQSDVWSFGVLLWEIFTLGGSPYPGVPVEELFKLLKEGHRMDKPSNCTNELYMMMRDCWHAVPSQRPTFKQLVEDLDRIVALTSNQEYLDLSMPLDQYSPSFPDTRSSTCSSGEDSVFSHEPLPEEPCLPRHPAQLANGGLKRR

COc1cc(OC)c(F)c(N2Cc3cnc4[nH]ncc4c3N(c3ccccc3OC(F)F)C2=O)c1F [Example 164, 3-(2,6-Difluoro-3,5-dimethoxyphenyl)-1-[2-(difluoromethoxy)phenyl]-1,3,4,7-tetrahydro-2H-pyrazolo[4′,3′:5,6]pyrido[4,3-d]pyrimidin-2-one]
< 100 nM: all assays above

COc1cc(OC)c(F)c(N2Cc3cnc4[nH]ncc4c3N(CCn3cccn3)C2=O)c1F [Example 165, 3-(2,6-Difluoro-3,5-dimethoxyphenyl)-1-[2-(1H-pyrazol-1-yl)ethyl]-1,3,4,7-tetrahydro-2H-pyrazolo[4′,3′:5,6]pyrido[4,3-d]pyrimidin-2-one]
< 100 nM: all assays above

COc1cc(OC)c(F)c(N2Cc3cnc4[nH]ncc4c3N(C[C@H]3CCCO3)C2=O)c1F [Example 166, 3-(2,6-Difluoro-3,5-dimethoxyphenyl)-1-[(2R)-tetrahydrofuran-2-ylmethyl]-1,3,4,7-tetrahydro-2H-pyrazolo[4′,3′:5,6]pyrido[4,3-d]pyrimidin-2-one]
< 100 nM: all assays above

COc1cc(OC)c(F)c(N2Cc3cnc4[nH]ncc4c3N(C[C@@H]3CCCO3)C2=O)c1F [Example 167, 3-(2,6-Difluoro-3,5-dimethoxyphenyl)-1-[(2S)-tetrahydrofuran-2-ylmethyl]-1,3,4,7-tetrahydro-2H-pyrazolo[4′,3′:5,6]pyrido[4,3-d]pyrimidin-2-one]
< 100 nM: all assays above

COc1cc(OC)c(F)c(N2Cc3cnc4[nH]ncc4c3N(CCc3cnccn3)C2=O)c1F [Example 168, 3-(2,6-Difluoro-3,5-dimethoxyphenyl)-1-(2-pyrazin-2-ylethyl)-1,3,4,7-tetrahydro-2H-pyrazolo[4′,3′:5,6]pyrido[4,3-d]pyrimidin-2-one]
< 100 nM: all assays above

COc1cc(OC)c(F)c(N2Cc3cnc4[nH]ncc4c3N(CCc3ccccn3)C2=O)c1F [Example 169, 3-(2,6-Difluoro-3,5-dimethoxyphenyl)-1-(2-pyridin-2-ylethyl)-1,3,4,7-tetrahydro-2H-pyrazolo[4′,3′:5,6]pyrido[4,3-d]pyrimidin-2-one]
< 100 nM: all assays above

COc1cc(OC)c(F)c(N2Cc3cnc4[nH]ncc4c3N(CCc3cccnc3)C2=O)c1F [Example 170, 3-(2,6-Difluoro-3,5-dimethoxyphenyl)-1-(2-pyridin-3-ylethyl)-1,3,4,7-tetrahydro-2H-pyrazolo[4′,3′:5,6]pyrido[4,3-d]pyrimidin-2-one]
< 100 nM: all assays above

COc1cc(OC)c(F)c(N2Cc3cnc4[nH]ncc4c3N(CCc3ccncc3)C2=O)c1F [Example 171, 3-(2,6-Difluoro-3,5-dimethoxyphenyl)-1-(2-pyridin-4-ylethyl)-1,3,4,7-tetrahydro-2H-pyrazolo[4′,3′:5,6]pyrido[4,3-d]pyrimidin-2-one]
< 100 nM: all assays above

CCn1cc(N2C(=O)N(c3c(F)c(OC)cc(OC)c3F)Cc3cnc4[nH]ncc4c32)cn1 [Example 172, 3-(2,6-difluoro-3,5-dimethoxyphenyl)-1-(1-ethyl-1H-pyrazol-4-yl)-1,3,4,7-tetrahydro-2H-pyrazolo[4′,3′:5,6]pyrido[4,3-d]pyrimidin-2-one]
< 100 nM: all assays above

COc1cc(OC)c(F)c(N2Cc3cnc4[nH]ncc4c3N(c3cnn(CC(C)(C)O)c3)C2=O)c1F [Example 173, 3-(2,6-difluoro-3,5-dimethoxyphenyl)-1-[1-(2-hydroxy-2-methylpropyl)-1H-pyrazol-4-yl]-1,3,4,7-tetrahydro-2H-pyrazolo[4′,3′:5,6]pyrido[4,3-d]pyrimidin-2-one]
< 100 nM: all assays above

COCCn1cc(N2C(=O)N(c3c(F)c(OC)cc(OC)c3F)Cc3cnc4[nH]ncc4c32)cn1 [Example 174, 3-(2,6-difluoro-3,5-dimethoxyphenyl)-1-[1-(2-methoxyethyl)-1H-pyrazol-4-yl]-1,3,4,7-tetrahydro-2H-pyrazolo[4′,3′:5,6]pyrido[4,3-d]pyrimidin-2-one]
< 100 nM: all assays above

COc1cc(OC)c(F)c(N2Cc3cnc4[nH]ncc4c3N(c3cnn(CC(F)F)c3)C2=O)c1F [Example 175, 3-(2,6-difluoro-3,5-dimethoxyphenyl)-1-[1-(2,2-difluoroethyl)-1H-pyrazol-4-yl]-1,3,4,7-tetrahydro-2H-pyrazolo[4′,3′:5,6]pyrido[4,3-d]pyrimidin-2-one]
< 100 nM: all assays above

COc1cccc(CN2C(=O)N(c3c(F)c(OC)cc(OC)c3F)Cc3cnc4[nH]ncc4c32)n1 [Example 176, 3-(2,6-difluoro-3,5-dimethoxyphenyl)-1-[(6-methoxypyridin-2-yl)methyl]-1,3,4,7-tetrahydro-2H-pyrazolo[4′,3′:5,6]pyrido[4,3-d]pyrimidin-2-one]
< 100 nM: all assays above

COc1cc(CN2C(=O)N(c3c(F)c(OC)cc(OC)c3F)Cc3cnc4[nH]ncc4c32)ccn1 [Example 177, 3-(2,6-difluoro-3,5-dimethoxyphenyl)-1-[(2-methoxypyridin-4-yl)methyl]-1,3,4,7-tetrahydro-2H-pyrazolo[4′,3′:5,6]pyrido[4,3-d]pyrimidin-2-one]
< 100 nM: all assays above

COc1cc(OC)c(F)c(N2Cc3cnc4[nH]ncc4c3N(C[C@H]3CCOC3)C2=O)c1F [Example 178, 3-(2,6-difluoro-3,5-dimethoxyphenyl)-1-[(3R)-tetrahydrofuran-3-ylmethyl]-1,3,4,7-tetrahydro-2H-pyrazolo[4′,3′:5,6]pyrido[4,3-d]pyrimidin-2-one]
< 100 nM: all assays above

COc1cc(OC)c(F)c(N2Cc3cnc4[nH]ncc4c3N(C[C@@H]3CCOC3)C2=O)c1F [Example 179, 3-(2,6-difluoro-3,5-dimethoxyphenyl)-1-[(3S)-tetrahydrofuran-3-ylmethyl]-1,3,4,7-tetrahydro-2H-pyrazolo[4′,3′:5,6]pyrido[4,3-d]pyrimidin-2-one]
< 100 nM: all assays above

COc1cc(OC)c(F)c(N2Cc3cnc4[nH]c(CN5CCOCC5)cc4c3N(c3ccccc3F)C2=O)c1F [Example 180, 3-(2,6-difluoro-3,5-dimethoxyphenyl)-1-(2-fluorophenyl)-8-(morpholin-4-ylmethyl)-1,3,4,7-tetrahydro-2H-pyrrolo[3′,2′:5,6]pyrido[4,3-d]pyrimidin-2-one]
< 100 nM: all assays above
